In ChEMBL document CHEMBL5620396, “Phenotypic screening identifies a trisubstituted imidazo[1,2-a]pyridine series that induces differentiation in multiple AML cell lines” (Eur J Med Chem, 2023):
≈ marks a conversion by molar mass, not a printed value. Calls of active or inactive are those of the source. The calls are words filed in the database; no cut-off is given here.

How the values were obtained:
[1] = Semi-thermodynamic aqueous solubility of compound; format: physicochemical; settings: buffer; read-out: Therm_solubility
[2] = Metabolic stability in mouse S9 fraction assessed as compound remaining measured after 45 mins in absence of NADPH and […]; format: ADME, subcellular; settings: read-out: Stability
HL-60 [3] = assay: Induction of differentiation in human HL-60 cells assessed as upregulation of CD11b response at 10 uM incubated for 4 days by flow cytometry analysis relative to control; format: functional; settings: time 4 day
HL-60 [4] = assay: Induction of differentiation in human HL-60 cells assessed as upregulation of CD11b response at 1 uM incubated for 4 days by flow cytometry analysis relative to control; format: functional; settings: time 4 day
HL-60 [5] = assay: Induction of differentiation in human HL-60 cells assessed as reduction in cell number at 10 uM incubated for 4 days by acridine orange/DAPI staining based analysis; format: functional; settings: time 4.0 day
THP-1 [6] = assay: Induction of differentiation in human THP-1 cells assessed as reduction in cell number at 10 uM incubated for 4 days by acridine orange/DAPI staining based analysis; format: functional; settings: time 4.0 day
OCI-AML-3 [7] = assay: Induction of differentiation in human OCI-AML-3 cells assessed as reduction in cell number at 10 uM incubated for 4 days by acridine orange/DAPI staining based analysis; format: functional; settings: time 4.0 day
KG-1 [8] = assay: Induction of differentiation in human KG-1 cells assessed as reduction in cell number at 10 uM incubated for 4 days by acridine orange/DAPI staining based analysis; format: functional; settings: time 4.0 day
ME-1 [9] = assay: Induction of differentiation in human ME-1 cells assessed as reduction in cell number at 10 uM incubated for 4 days by acridine orange/DAPI staining based analysis; format: functional; settings: time 4.0 day
Kasumi 1 [10] = assay: Induction of differentiation in human Kasumi 1 cells assessed as reduction in cell number at 10 uM incubated for 4 days by acridine orange/DAPI staining based analysis; format: functional; settings: time 4.0 day
HL-60 [11] = assay: Induction of morphological changes in human HL-60 cells assessed as variation in cell size at 10 uM; format: functional, cell-based
HL-60 [12] = assay: Induction of morphological changes in human HL-60 cells assessed as variations in nuclear segmentation at 10 uM; format: functional, cell-based
HL-60 [13] = assay: Induction of morphological changes in human HL-60 cells assessed as appearance of wider and lighter cytoplasm at 10 uM; format: functional, cell-based
HL-60 [14] = assay: Induction of morphological changes in human HL-60 cells assessed as appearance of granules and vacuoles at 10 uM; format: functional, cell-based
HL-60 [15] = assay: Induction of differentiation in human HL-60 cells assessed as reduction in cell number at 10 nM incubated for 4 days by acridine orange/DAPI staining based analysis; format: functional; settings: time 4.0 day
THP-1 [16] = assay: Induction of differentiation in human THP-1 cells assessed as reduction in cell number at 10 nM incubated for 4 days by acridine orange/DAPI staining based analysis; format: functional; settings: time 4.0 day
OCI-AML-3 [17] = assay: Induction of differentiation in human OCI-AML-3 cells assessed as reduction in cell number at 10 nM incubated for 4 days by acridine orange/DAPI staining based analysis; format: functional; settings: time 4.0 day
KG-1 [18] = assay: Induction of differentiation in human KG-1 cells assessed as reduction in cell number at 10 nM incubated for 4 days by acridine orange/DAPI staining based analysis; format: functional; settings: time 4.0 day
ME-1 [19] = assay: Induction of differentiation in human ME-1 cells assessed as reduction in cell number at 10 nM incubated for 4 days by acridine orange/DAPI staining based analysis; format: functional; settings: time 4.0 day
Kasumi 1 [20] = assay: Induction of differentiation in human Kasumi 1 cells assessed as reduction in cell number at 10 nM incubated for 4 days by acridine orange/DAPI staining based analysis; format: functional; settings: time 4.0 day

| Structure (SMILES) | solubility thermodynamic [1] [µM] | also measured |
| --- | --- | --- |
| COc1ccccc1-c1cc(NC=O)c2ncc(-c3ccc4nc(C)oc4c3)n2c1 | 2 (≈ 0.797 µg/mL) | – |
| COc1ccccc1-c1cc(NC=O)c2ncc(-c3ccccc3)n2c1 | 2 (≈ 0.687 µg/mL) | – |
| COc1ccc(-c2cnc3ccc(-c4ccccc4OC)cn23)cc1OC | 156 (≈ 56.2 µg/mL) | – |
| CNc1nc(-c2ccccc2OC)cn2c(-c3ccc(OC)c(OC)c3)cnc12 | 39 (≈ 15.2 µg/mL) | – |
| COc1ccc(-c2cnc3c(NS(C)(=O)=O)cc(-c4ccccc4OC)cn23)cc1OC | 43 (≈ 19.5 µg/mL) | – |
| COc1ccccc1-c1cc(NS(C)(=O)=O)c2ncc(-c3ccc4c(cnn4C)c3)n2c1 | 18 (≈ 8.06 µg/mL) | – |
| COc1ccc(-c2cnc3c(C(N)=O)cc(-c4ccccc4OC)cn23)cc1OC | 12 (≈ 4.84 µg/mL) | – |
| COc1ccc(-c2cnc3c(N4CCOCC4)nc(-c4ccccc4OC)cn23)cc1OC | 4 (≈ 1.79 µg/mL) | – |
| COc1ccc(-c2cnc3c(N4CC5(COC5)C4)nc(-c4ccccc4OC)cn23)cc1OC | 26 (≈ 11.9 µg/mL) | – |
| COc1ccc(-c2cnc3c(N)cc(-c4ccccc4OC)cn23)cc1OC | 38 (≈ 14.3 µg/mL) | – |
| CNc1cc(-c2ccccc2OC)cn2c(-c3ccc(OC)c(OC)c3)cnc12 | 8 (≈ 3.12 µg/mL) | remaining at 0.75 h [2]: 81% |
| COc1ccc(-c2cnc3c(NC(C)=O)cc(-c4ccccc4OC)cn23)cc1OC | 39 (≈ 16.3 µg/mL) | remaining at 0.75 h [2]: 1% |
| Cc1ccccc1-c1cc(NS(C)(=O)=O)c2ncc(-c3ccc4c(cnn4C)c3)n2c1 | 13 (≈ 5.61 µg/mL) | – |
| Cn1ncc2cc(-c3cnc4c(NS(C)(=O)=O)cc(-c5ccc(F)cc5Cl)cn34)ccc21 | 9 (≈ 4.23 µg/mL) | – |
| COc1ccc(-c2cnc3c(N(C)C=O)cc(-c4ccccc4OC)cn23)cc1OC | 1 (≈ 0.417 µg/mL) | remaining at 0.75 h [2]: 46% |
| COc1ccccc1-c1cc(NC=O)c2ncc(-c3ccc4c(c3)c(C)nn4C)n2c1 | 6 (≈ 2.47 µg/mL) | – |
| COc1ccccc1-c1cc(NC=O)c2nccn2c1 | > 200 | – |
| COc1ccccc1-c1cc(NC=O)c2ncc(-c3ccc4c(C)nn(C)c4c3)n2c1 | 2 (≈ 0.823 µg/mL) | – |
| COc1ccc(-c2cnc3c(NC=O)cc(-c4ccccc4OC)cn23)cc1C#N | 2 (≈ 0.797 µg/mL) | – |
| COc1ccccc1-c1cc(NC=O)c2ncc(-c3ccc4nn(C)c(C)c4c3)n2c1 | 4 (≈ 1.65 µg/mL) | – |
| COc1ccc(-c2cnc3c(NC=O)cc(-c4ccccc4OC)cn23)cc1OC | 37 (≈ 14.9 µg/mL) | Activity (HL-60 [3]): <=78%; Activity (HL-60 [4]): 14%; Activity (HL-60 [5]): Active; Activity (THP-1 [6]): Active; Activity (OCI-AML-3 [7]): Active; Activity (KG-1 [8]): Active; Activity (ME-1 [9]): Active; Activity (Kasumi 1 [10]): Active; Activity (HL-60 [11]): Active; Activity (HL-60 [12]): Active; Activity (HL-60 [13]): Active; Activity (HL-60 [14]): Active; remaining at 0.75 h [2]: 28% |
| COc1ccc(-c2cnc3ncc(-c4ccccc4OC)cn23)cc1OC | 1 (≈ 0.361 µg/mL) | remaining at 0.75 h [2]: 70% |
| CCCCCCCCCCCCCC(=O)O[C@@H]1[C@@H](C)[C@@]2(O)[C@@H](C=C(CO)C[C@]3(O)C(=O)C(C)=C[C@@H]23)[C@@H]2C(C)(C)[C@]12OC(C)=O | – | Activity (HL-60 [15]): Active; Activity (THP-1 [16]): Active; Activity (OCI-AML-3 [17]): Active; Activity (KG-1 [18]): Active; Activity (ME-1 [19]): Active; Activity (Kasumi 1 [20]): Active |
| COc1ccc(-c2cnc3c(NC=O)nc(-c4ccccc4OC)cn23)cc1OC | 1 (≈ 0.404 µg/mL) | remaining at 0.75 h [2]: 0.5% |
| COc1cc(C#N)ccc1-c1cc(NS(C)(=O)=O)c2ncc(-c3ccc4c(cnn4C)c3)n2c1 | 2 (≈ 0.945 µg/mL) | – |
| COc1ccc(-n2cnc3cnc(-c4ccccc4OC)cc32)cc1OC | 200 (≈ 72.3 µg/mL) | – |
| COc1cc(F)ccc1-c1cc(NS(C)(=O)=O)c2ncc(-c3ccc4c(cnn4C)c3)n2c1 | 12 (≈ 5.59 µg/mL) | – |
| COc1ccccc1-c1cc(NC=O)c2ncc(-c3ccc4c(cnn4C)c3)n2c1 | 2 (≈ 0.795 µg/mL) | – |
| CC1=C(c2cc(NS(C)(=O)=O)c3ncc(-c4ccc5c(cnn5C)c4)n3c2)CCCC1 | 26 (≈ 11.3 µg/mL) | – |
| Cc1cc(C#N)ccc1-c1cc(NS(C)(=O)=O)c2ncc(-c3ccc4c(cnn4C)c3)n2c1 | 26 (≈ 11.9 µg/mL) | – |
